In ChEMBL document CHEMBL1201862, “PubChem BioAssay data set” (2004):
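Method: 48-hour compound exposure of cells in 96-well plates, five concentrations, linear interpolation of endpoints. At the GI50, growth is halved.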 The source made the active and inactive calls. No stated cut-off is given here; in the data, active = GI50 up to about 1.1 µM and inactive = higher.

Key:
Assay in all cases: growth of human tumour cells (NCI), 48 h
IGROV-1 = test system: IGROV-1
OVCAR-4 = test system: OVCAR-4
K562 = test system: K562
SF-268 = test system: SF-268
EKVX = test system: EKVX
NCI-H522 = test system: NCI-H522
OVCAR-5 = test system: OVCAR-5
M14 = test system: M14
LOX IMVI = test system: LOX IMVI
SK-MEL-5 = test system: SK-MEL-5
SN12C = test system: SN12C
Malme-3M = test system: Malme-3M
UACC-62 = test system: UACC-62
HT-29 = test system: HT-29
NCI-H23 = test system: NCI-H23
RPMI-8226 = test system: RPMI-8226
OVCAR-8 = test system: OVCAR-8
MDA-MB-231 = test system: MDA-MB-231
U-251 = test system: U-251
DU-145 = test system: DU-145

SMILES | GI50 (IGROV-1) | GI50 (OVCAR-4) | GI50 (K562) | GI50 (SF-268) | GI50 (EKVX) | GI50 (NCI-H522) | GI50 (OVCAR-5) | GI50 (M14) | GI50 (LOX IMVI) | GI50 (SK-MEL-5) | GI50 (SN12C) | GI50 (Malme-3M) | GI50 (UACC-62) | GI50 (HT-29) | GI50 (NCI-H23) | GI50 (RPMI-8226) | GI50 (OVCAR-8) | GI50 (MDA-MB-231) | GI50 (U-251) | GI50 (DU-145)
O=C(CCn1[nH]c(=O)c(Cl)c(Cl)c1=O)NNC(=O)C[n+]1ccccc1 | > 100 µM (inactive) | > 100 µM (inactive) | > 100 µM (inactive) | > 100 µM (inactive) | > 100 µM (inactive) | > 100 µM (inactive) | > 100 µM (inactive) | > 100 µM (inactive) | > 100 µM (inactive) | > 100 µM (inactive) | > 100 µM (inactive) | > 100 µM (inactive) | > 100 µM (inactive) | > 100 µM (inactive) | > 100 µM (inactive) | > 100 µM (inactive) | > 100 µM (inactive) | – | – | –
Cc1cc2nc3n(c2cc1C)C(c1c(F)cccc1F)SC3 (centres undefined) | > 10 µM (inactive) | 22.9 µM (inactive) | 17.6 µM (inactive) | 27.6 µM (inactive) | 34.8 µM (inactive) | 21.3 µM (inactive) | 19.2 µM (inactive) | 19.8 µM (inactive) | 15.7 µM (inactive) | 11 µM (inactive) | 19.5 µM (inactive) | 20.8 µM (inactive) | > 10 µM (inactive) | 18.5 µM (inactive) | 16.5 µM (inactive) | 25.4 µM (inactive) | 33.3 µM (inactive) | 17.9 µM (inactive) | 16.1 µM (inactive) | –
Cc1ccc2nc(-c3ccc(N4C(=O)C(Cl)C4c4ccc(Cl)cc4)cc3)sc2c1 (centres undefined) | – | 1.95 µM (inactive) | 24.5 µM (inactive) | 22.8 µM (inactive) | 2.62 µM (inactive) | – | 18.4 µM (inactive) | 21.4 µM (inactive) | 5.35 µM (inactive) | 14.2 µM (inactive) | 19.9 µM (inactive) | 28.8 µM (inactive) | 15.3 µM (inactive) | 1.95 µM (inactive) | 21.6 µM (inactive) | 11.5 µM (inactive) | 28.5 µM (inactive) | 13.5 µM (inactive) | 19.2 µM (inactive) | 27.2 µM (inactive)
Cc1nnc(N/N=C(/C(=O)C(C#N)c2ccccc2)C(C#N)c2ccccc2)n1N (centres undefined) | > 58.9 µM (inactive) | 24.4 µM (inactive) | 3.73 µM (inactive) | 31 µM (inactive) | 51.9 µM (inactive) | 17.9 µM (inactive) | > 42.9 µM (inactive) | 16.8 µM (inactive) | 1.54 µM (inactive) | 18.3 µM (inactive) | 3.13 µM (inactive) | 4.18 µM (inactive) | 29.8 µM (inactive) | 6.4 µM (inactive) | 12.9 µM (inactive) | 19.6 µM (inactive) | 3.62 µM (inactive) | – | 32.6 µM (inactive) | –
O=C(CC1(O)C(=O)Nc2ccccc21)c1ccc(F)cc1 (centres undefined) | > 100 µM (inactive) | > 100 µM (inactive) | > 100 µM (inactive) | > 100 µM (inactive) | > 100 µM (inactive) | > 100 µM (inactive) | > 100 µM (inactive) | > 100 µM (inactive) | > 100 µM (inactive) | > 100 µM (inactive) | > 100 µM (inactive) | > 100 µM (inactive) | > 100 µM (inactive) | > 100 µM (inactive) | > 100 µM (inactive) | > 100 µM (inactive) | > 100 µM (inactive) | – | – | –
O=[N+]([O-])c1cc([N+](=O)[O-])c(C(Cl)C(Cl)c2ccccc2)cc1C(Cl)C(Cl)c1ccccc1 (centres undefined) | 2.46 µM (inactive) | 2.64 µM (inactive) | 1.69 µM (inactive) | 1.77 µM (inactive) | 2.2 µM (inactive) | 1.61 µM (inactive) | 2.14 µM (inactive) | 1.49 µM (inactive) | 1.64 µM (inactive) | 1.66 µM (inactive) | 1.75 µM (inactive) | 1.76 µM (inactive) | 1.84 µM (inactive) | 2.17 µM (inactive) | 1.65 µM (inactive) | 1.07 µM (active) | 1.87 µM (inactive) | – | 1.82 µM (inactive) | –
CN(C)/C(F)=P\C(F)(F)F (centres undefined) | > 100 µM (inactive) | > 100 µM (inactive) | > 100 µM (inactive) | > 100 µM (inactive) | > 100 µM (inactive) | > 100 µM (inactive) | > 100 µM (inactive) | > 100 µM (inactive) | > 100 µM (inactive) | > 100 µM (inactive) | > 100 µM (inactive) | > 100 µM (inactive) | > 100 µM (inactive) | > 100 µM (inactive) | > 100 µM (inactive) | > 100 µM (inactive) | > 100 µM (inactive) | – | > 100 µM (inactive) | –
CC(C)=CC(=O)Cc1nc2ccc([N+](=O)[O-])cc2[nH]c1=O | > 100 µM (inactive) | > 100 µM (inactive) | 83.8 µM (inactive) | > 100 µM (inactive) | > 100 µM (inactive) | 23.9 µM (inactive) | > 100 µM (inactive) | > 100 µM (inactive) | > 100 µM (inactive) | 22.6 µM (inactive) | > 100 µM (inactive) | > 100 µM (inactive) | > 100 µM (inactive) | > 100 µM (inactive) | > 100 µM (inactive) | 17.3 µM (inactive) | > 100 µM (inactive) | – | – | –
O=c1[nH]cc(C(F)(C(F)(F)F)C(F)(F)F)c(=O)[nH]1 | > 100 µM (inactive) | > 100 µM (inactive) | > 100 µM (inactive) | > 100 µM (inactive) | > 100 µM (inactive) | > 100 µM (inactive) | > 100 µM (inactive) | > 100 µM (inactive) | > 100 µM (inactive) | > 100 µM (inactive) | > 100 µM (inactive) | > 100 µM (inactive) | > 100 µM (inactive) | > 100 µM (inactive) | > 100 µM (inactive) | > 100 µM (inactive) | > 100 µM (inactive) | – | > 100 µM (inactive) | –
CCCCCCCCCCCCCCCC(=O)OCCOCCOCCOCCOCCOC(=O)CCCCCCCCCCCCCCC | > 100 µM (inactive) | > 100 µM (inactive) | > 100 µM (inactive) | > 100 µM (inactive) | > 100 µM (inactive) | > 100 µM (inactive) | > 100 µM (inactive) | > 100 µM (inactive) | > 100 µM (inactive) | > 100 µM (inactive) | > 100 µM (inactive) | > 100 µM (inactive) | > 100 µM (inactive) | > 100 µM (inactive) | > 100 µM (inactive) | > 100 µM (inactive) | > 100 µM (inactive) | – | > 100 µM (inactive) | –
Cc1ccc(NC(=O)CCC(=O)C(C#N)c2ccc(Cl)cc2)cc1C (centres undefined) | > 100 µM (inactive) | > 100 µM (inactive) | > 100 µM (inactive) | > 100 µM (inactive) | > 100 µM (inactive) | > 100 µM (inactive) | > 100 µM (inactive) | > 100 µM (inactive) | > 100 µM (inactive) | > 100 µM (inactive) | > 100 µM (inactive) | > 100 µM (inactive) | > 100 µM (inactive) | > 100 µM (inactive) | > 100 µM (inactive) | > 100 µM (inactive) | > 100 µM (inactive) | – | > 100 µM (inactive) | –
CC(C)(C)C#C[P+](c1ccccc1)(c1ccccc1)c1ccccc1 | 0.578 µM (active) | 0.211 µM (active) | 0.0498 µM (active) | 0.203 µM (active) | 0.566 µM (active) | 0.15 µM (active) | 1.15 µM (inactive) | 0.225 µM (active) | 0.328 µM (active) | 0.187 µM (active) | 0.192 µM (active) | 0.349 µM (active) | 0.297 µM (active) | 0.292 µM (active) | 0.353 µM (active) | 0.0377 µM (active) | 0.185 µM (active) | – | 0.119 µM (active) | –
N#Cc1[nH]c(=S)[nH]c1N | > 100 µM (inactive) | > 100 µM (inactive) | > 100 µM (inactive) | > 100 µM (inactive) | > 100 µM (inactive) | > 100 µM (inactive) | > 100 µM (inactive) | – | > 100 µM (inactive) | > 100 µM (inactive) | > 100 µM (inactive) | > 100 µM (inactive) | > 100 µM (inactive) | > 100 µM (inactive) | > 100 µM (inactive) | – | > 100 µM (inactive) | – | > 100 µM (inactive) | > 100 µM (inactive)
CC(C)NCC(O)COC(=O)c1cccs1 (centres undefined) | > 100 µM (inactive) | > 100 µM (inactive) | > 100 µM (inactive) | > 100 µM (inactive) | > 100 µM (inactive) | > 100 µM (inactive) | > 100 µM (inactive) | > 100 µM (inactive) | > 100 µM (inactive) | > 100 µM (inactive) | > 100 µM (inactive) | > 100 µM (inactive) | > 100 µM (inactive) | > 100 µM (inactive) | > 100 µM (inactive) | > 100 µM (inactive) | > 100 µM (inactive) | – | – | –
COc1ccc(-c2c(C#N)c(S)n(NS(=O)(=O)c3ccc(C)cc3)c(=O)c2C#N)cc1 | 14.6 µM (inactive) | 23.7 µM (inactive) | 18.7 µM (inactive) | 23.4 µM (inactive) | 25.8 µM (inactive) | 14.8 µM (inactive) | 16.7 µM (inactive) | 17.7 µM (inactive) | 13.9 µM (inactive) | 13.8 µM (inactive) | 17.2 µM (inactive) | 24.6 µM (inactive) | 15.6 µM (inactive) | 31.6 µM (inactive) | – | 3.42 µM (inactive) | 20.2 µM (inactive) | 17.8 µM (inactive) | 29.4 µM (inactive) | –
COc1ccc(O)c(C#N)c1C#N | > 100 µM (inactive) | > 100 µM (inactive) | > 100 µM (inactive) | > 100 µM (inactive) | > 100 µM (inactive) | > 100 µM (inactive) | > 100 µM (inactive) | > 100 µM (inactive) | < 0.01 µM (active) | > 100 µM (inactive) | > 100 µM (inactive) | > 100 µM (inactive) | > 100 µM (inactive) | > 100 µM (inactive) | > 100 µM (inactive) | > 100 µM (inactive) | > 100 µM (inactive) | – | > 100 µM (inactive) | –
